{"source": "paper PMC2832019", "about": "“In Vitro Metabolic and Mitogenic Signaling of Insulin Glargine and Its Metabolites” (PLoS ONE, 2010)", "origin": "cited, not measured here", "key": {"[1]": {"tested_on": "rats", "conditions": "2-year life-time, relative to human insulin, ref [59]; cited from earlier work", "source_text": "In these studies plasma insulin concentrations were 15 to 25 nmol/L, covering parent compound and active metabolites. In consequence, actual glargine concentrations may be overestimated, the extent of which depends on the degree of proteolytic degradation at both the injection site and the serum. Quantitative assessment of the insulin glargine metabolism in humans is evolving, and will bring further clarification."}, "[2]": {"conditions": "no reference given, cited from earlier work", "source_text": "These alterations cause a shift in the isoelectric point from pH 5.4 to 6.7. Following subcutaneous administration as a clear solution of pH 4, insulin gla ..."}, "[3]": {"tested_on": "MCF-7 and SKBR-3 cells", "conditions": "ref [48]; cited from earlier work", "source_text": "(§1) A correlation between IGF1R autophosphorylation and cell proliferation has been recently assumed by Shukla et al., who observed an enhanced growth of the malignant cell line MCF7 after insulin glargine stimulation. The authors have observed 10% and 50% increases of cellular proliferation at 0.31 and about 15 nmol/L. This effect seemed to be linked to activation of the IGF1R and the MAPK pathway, since siRNA knockdown of IGF1R decreased the response. Unfortunately, no dose-response curve of IGF1R autophosphorylation as well as no proliferation data from siRNA knockdown of IR have ..."}, "[4]": {"tested_on": "MCF10", "conditions": "benign cell line; ref [15]; cited from earlier work", "source_text": "as §1"}, "[5]": {"tested_on": "MCF7", "conditions": "ref [15], cited from earlier work", "source_text": "as §1"}, "[6]": {"tested_on": "MCF7 and other tumor cell lines", "conditions": "ref [14]; cited from earlier work", "source_text": "as §1"}, "[7]": {"tested_on": "MCF-7 cells, HCT-116 (colorectal cancer) and PC-3 (prostate cancer) cells", "conditions": "ref [49]; cited from earlier work", "source_text": "as §1, with “This effect seemed to be linked to activation of the IGF1R and the MAPK pathway, since siRNA knockdown of IGF1R decreased the response.” left out"}, "[8]": {"conditions": "after injection, healthy subjects and patients with type 1 diabetes; ref [52]–[55]; cited from earlier work", "source_text": "The therapeutic insulin glargine concentrations reported so far are 80- to 200-fold below the total plasma concentrations of IGF-1. […] Therefore, the concentration of free IGF-1 may be within the range of the plasma concentration of insulin glarg ..."}, "[9]": {"tested_on": "Sprague-Dawley rats", "conditions": "rat, in vivo; cited from earlier work"}, "[10]": {"tested_on": "Saos-2", "design": "method as in PMID 10866053", "conditions": "ref [12]; cited from earlier work"}, "[11]": {"tested_on": "BT474, T47D, ZR75-1, MDA-MB231, HCC1937", "conditions": "ref [15]; cited from earlier work", "source_text": "as §1"}, "[12]": {"conditions": "in vivo, sc; cited from earlier work"}}, "note": "Read-outs that look alike come from different tables or passages of the source.", "data": [{"substance": "[Gly^A21,Arg^B31,Arg^B32]insulin [Glargine]", "values": [{"measurement": "tumor-promoting activity", "setting": "[1]", "result": "without evidence of tumor-promoting activity greater than human insulin"}, {"measurement": "isoelectric point", "setting": "[2]", "result": 6.7, "unit": "pH"}, {"measurement": "solubility", "setting": "[2]; physiological pH", "result": "low solubility at physiological pH"}, {"measurement": "mitogenic activity", "setting": "[3]", "result": "slightly increased mitogenic activity of insulin glargine without statistical significance"}, {"measurement": "difference between human insulin and insulin glargine", "setting": "[4]", "result": "did not show any difference"}, {"measurement": "increase of cellular proliferation", "setting": "[5]; at 0.31 nmol/L", "result": 10, "unit": "%"}, {"measurement": "increase of cellular proliferation", "setting": "[5]; at about 15 nmol/L", "result": 50, "unit": "%"}, {"measurement": "mitogenic activity relative to human insulin", "setting": "[6]", "result": "no evidence for an increased mitogenic activity"}, {"measurement": "mitogenic potency", "setting": "[7]", "result": "increased mitogenic potency"}, {"measurement": "peak free serum insulin glargine level", "setting": "[8]", "result": "< 200", "unit": "pmol/L"}]}, {"substance": "[Asp^B10]insulin", "values": [{"measurement": "incidence of breast cancer", "setting": "[9]", "result": "higher incidence of breast cancer"}, {"measurement": "proliferation rate of Saos-2", "setting": "[10]", "result": "higher proliferation rate"}]}, {"substance": "Human insulin: human insulin produced by recombinant DNA techniques or enzymatic semisynthesis", "values": [{"measurement": "isoelectric point", "setting": "[2]", "result": 5.4, "unit": "pH"}, {"measurement": "response of cell lines to human insulin", "setting": "[11]", "result": "did not respond"}, {"measurement": "difference between human insulin and insulin glargine", "setting": "[4]", "result": "did not show any difference"}]}, {"substance": "[Gly^A21,Arg^B31]insulin [Glargine IM]", "values": [{"measurement": "amount of metabolite", "setting": "[12]", "result": "only in minor quantities"}]}]}
